Molecular target: T1, CDK12 complexed with Cyclin K (Homo sapiens, UniProt Q9NYV4)
T1 construct: GST (N)
Assay: Alternative CDK Enzymatic Assays (HTRF, pre-incubation with compounds and 1 mM ATP), Example A2
Format: biochemical
Settings: enzyme pre-incubated with compounds and 1 mM ATP for 60 minutes; reaction 120 minutes at 25° C.
In short: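 GST-tagged human CDK12 co-expressed with full-length Cyclin K (baculovirus), pre-incubated 60 min with compounds and 1 mM ATP; reaction started with 1 mM ATP and 50 nM ULight-4E-BP1 peptide, 120 min at 25 °C, pH 7.5 HEPES. EDTA-stopped, Eu-anti-phospho-4E-BP1 HTRF (665/620 nm); IC50 from 3- or 4-parameter fit vs DMSO/no-enzyme controls.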

T1 sequence (Q9NYV4 whole entry): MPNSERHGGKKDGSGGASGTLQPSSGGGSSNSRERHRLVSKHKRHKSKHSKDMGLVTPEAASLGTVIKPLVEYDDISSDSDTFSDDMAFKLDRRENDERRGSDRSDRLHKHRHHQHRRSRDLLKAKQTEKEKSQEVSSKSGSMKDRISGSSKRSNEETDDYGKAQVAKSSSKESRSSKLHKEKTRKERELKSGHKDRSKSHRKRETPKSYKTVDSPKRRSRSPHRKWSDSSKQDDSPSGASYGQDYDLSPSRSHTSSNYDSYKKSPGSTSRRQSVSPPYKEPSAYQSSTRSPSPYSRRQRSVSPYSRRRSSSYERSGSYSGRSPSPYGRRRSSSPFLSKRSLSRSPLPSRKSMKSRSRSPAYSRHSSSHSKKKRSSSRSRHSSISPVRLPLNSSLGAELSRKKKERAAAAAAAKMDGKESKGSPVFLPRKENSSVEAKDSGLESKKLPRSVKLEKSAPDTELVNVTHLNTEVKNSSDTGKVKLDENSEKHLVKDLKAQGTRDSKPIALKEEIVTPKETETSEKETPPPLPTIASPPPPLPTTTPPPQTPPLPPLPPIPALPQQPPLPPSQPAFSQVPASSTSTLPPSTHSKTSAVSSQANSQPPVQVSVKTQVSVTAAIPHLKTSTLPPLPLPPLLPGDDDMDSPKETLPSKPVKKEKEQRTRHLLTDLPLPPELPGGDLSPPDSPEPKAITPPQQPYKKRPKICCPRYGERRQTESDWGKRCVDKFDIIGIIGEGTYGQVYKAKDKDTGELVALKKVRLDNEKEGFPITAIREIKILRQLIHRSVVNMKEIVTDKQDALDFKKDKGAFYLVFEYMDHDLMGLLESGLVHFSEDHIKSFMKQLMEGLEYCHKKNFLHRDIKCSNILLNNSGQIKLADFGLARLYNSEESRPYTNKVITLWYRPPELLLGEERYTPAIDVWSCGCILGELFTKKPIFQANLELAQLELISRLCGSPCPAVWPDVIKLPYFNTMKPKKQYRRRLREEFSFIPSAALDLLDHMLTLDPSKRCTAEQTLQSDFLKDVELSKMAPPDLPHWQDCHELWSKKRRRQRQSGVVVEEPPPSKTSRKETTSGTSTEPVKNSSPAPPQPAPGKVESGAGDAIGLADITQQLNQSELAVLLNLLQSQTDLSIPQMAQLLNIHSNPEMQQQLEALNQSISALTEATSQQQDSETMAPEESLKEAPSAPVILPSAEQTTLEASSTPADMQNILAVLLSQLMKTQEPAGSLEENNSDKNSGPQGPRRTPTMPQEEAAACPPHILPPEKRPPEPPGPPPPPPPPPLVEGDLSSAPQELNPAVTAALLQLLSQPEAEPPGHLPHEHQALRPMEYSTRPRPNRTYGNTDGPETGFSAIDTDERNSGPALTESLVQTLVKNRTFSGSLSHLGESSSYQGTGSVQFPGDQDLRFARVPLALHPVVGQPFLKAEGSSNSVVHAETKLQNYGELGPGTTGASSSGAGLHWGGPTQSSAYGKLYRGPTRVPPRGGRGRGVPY
T1 sequence (O75909 whole entry partner): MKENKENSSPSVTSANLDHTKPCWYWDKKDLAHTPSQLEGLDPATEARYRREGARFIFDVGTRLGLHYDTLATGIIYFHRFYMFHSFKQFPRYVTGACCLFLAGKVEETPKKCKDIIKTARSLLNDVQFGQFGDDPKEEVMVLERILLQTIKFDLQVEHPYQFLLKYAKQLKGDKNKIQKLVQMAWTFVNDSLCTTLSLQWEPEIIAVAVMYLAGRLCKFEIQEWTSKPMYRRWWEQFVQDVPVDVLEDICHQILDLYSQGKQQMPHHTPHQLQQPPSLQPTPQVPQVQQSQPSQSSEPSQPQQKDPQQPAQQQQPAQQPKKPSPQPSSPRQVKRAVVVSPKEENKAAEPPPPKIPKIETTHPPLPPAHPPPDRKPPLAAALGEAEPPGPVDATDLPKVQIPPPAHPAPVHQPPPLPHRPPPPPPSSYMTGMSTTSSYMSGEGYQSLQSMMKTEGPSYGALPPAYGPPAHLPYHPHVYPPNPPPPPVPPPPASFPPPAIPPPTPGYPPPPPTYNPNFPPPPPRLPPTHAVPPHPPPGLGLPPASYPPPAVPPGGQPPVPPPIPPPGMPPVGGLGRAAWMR

Molecule | IC50
C=CC(=O)Nc1ccc2c(c1)nc(N1CCC[C@@H](Nc3ncc(C(F)(F)F)c(N4CCN(C)CC4)n3)C1)n2C [Example 152, (R)—N-(1-Methyl-2-(3-((4-(4-methylpiperazin-1-yl)-5-(trifluoromethyl)pyrimidin-2-yl)amino)piperidin-1-yl)-1H-benzo[d]imidazol-5-yl)acrylamide] | < 50 nM
C=CC(=O)Nc1cc2nc(N3CCC[C@@H](Nc4ncc(C(F)(F)F)cn4)C3)n(C)c2cc1CC [Example 153, (R)—N-(6-Ethyl-1-methyl-2-(3-((5-(trifluoromethyl)pyrimidin-2-yl)amino)piperidin-1-yl)-1H-benzo[d]imidazol-5-yl)acrylamide] | < 50 nM
C=CC(=O)Nc1cc2nc(N3CCC[C@@H](Nc4ncc(C(F)(F)F)cn4)C3)n(C)c2cc1C(C)C [Example 154, (R)—N-(6-Isopropyl-1-methyl-2-(3-((5-(trifluoromethyl)pyrimidin-2-yl)amino)piperidin-1-yl)-1H-benzo[d]imidazol-5-yl)acrylamide] | < 50 nM
C=CC(=O)Nc1c(C(C)C)cc2c(nc(N3CCC[C@@H](Nc4ncc(C(F)(F)F)cn4)C3)n2C)c1C [Example 155, (R)—N-(6-Isopropyl-1,4-dimethyl-2-(3-((5-(trifluoromethyl)pyrimidin-2-yl)amino)piperidin-1-yl)-1H-benzo[d]imidazol-5-yl)acrylamide] | < 50 nM
C=CC(=O)Nc1ccc2c(nc(N3CCC[C@@H](Nc4ncc(C(F)(F)F)cn4)C3)n2C)c1C [Example 156, (R)—N-(1,4-Dimethyl-2-(3-((5-(trifluoromethyl)pyrimidin-2-yl)amino)piperidin-1-yl)-1H-benzo[d]imidazol-5-yl)acrylamide] | < 50 nM
C=CC(=O)Nc1cc2nc(N3C[C@H](F)C[C@@H](Nc4ncc(C#N)c(N(C)C)n4)C3)n(C)c2cc1C [Example 157, N-(2-((3R,5R)-3-((5-Cyano-4-(dimethylamino)pyrimidin-2-yl)amino)-5-fluoropiperidin-1-yl)-1,6-dimethyl-1H-benzo[d]imidazol-5-yl)acrylamide] | 50 to 500 nM
C=CC(=O)Nc1cc2nc(N3C[C@H](F)C[C@@H](Nc4ncc(C#N)c(NC)n4)C3)n(C)c2cc1C [Example 158, N-(2-((3R,5R)-3-((5-Cyano-4-(methylamino)pyrimidin-2-yl)amino)-5-fluoropiperidin-1-yl)-1,6-dimethyl-1H-benzo[d]imidazol-5-yl)acrylamide] | < 50 nM
C=CC(=O)Nc1cc2nc(N3C[C@H](F)C[C@@H](Nc4ccc(C(F)(F)F)cn4)C3)n(C)c2cc1C [Example 159] | 50 to 500 nM
C=CC(=O)Nc1cc2nc(N3C[C@H](F)C[C@@H](Nc4ncc(C(F)F)cn4)C3)n(C)c2cc1C [Example 160, N-(2-((3R,5R)-3-((5-(Difluoromethyl)pyrimidin-2-yl)amino)-5-fluoropiperidin-1-yl)-1,6-dimethyl-1H-benzo[d]imidazol-5-yl)acrylamide] | 50 to 500 nM
C=CC(=O)Nc1cc2nc(N3C[C@H](F)C[C@@H](Nc4ncc(C#N)c(CC)n4)C3)n(C)c2cc1C [Example 161, N-(2-((3R,5R)-3-((5-Cyano-4-ethylpyrimidin-2-yl)amino)-5-fluoropiperidin-1-yl)-1,6-dimethyl-1H-benzo[d]imidazol-5-yl)acrylamide] | < 50 nM
C=CC(=O)Nc1cc2nc(N3C[C@H](F)C[C@@H](Nc4ncc(C#N)s4)C3)n(C)c2cc1C [Example 162, N-(2-((3R,5R)-3-((5-Cyanothiazol-2-yl)amino)-5-fluoropiperidin-1-yl)-1,6-dimethyl-1H-benzo[d]imidazol-5-yl)acrylamide] | 50 to 500 nM
C=CC(=O)Nc1cc2nc(N3C[C@H](F)C[C@@H](Nc4ccc(C#N)cn4)C3)n(C)c2cc1C [Example 163, N-(2-((3R,5R)-3-((5-Cyanopyridin-2-yl)amino)-5-fluoropiperidin-1-yl)-1,6-dimethyl-1H-benzo[d]imidazol-5-yl)acrylamide] | 50 to 500 nM
C=CC(=O)Nc1cc2nc(N3C[C@H](F)C[C@@H](Nc4ncc(C#N)c(C)n4)C3)n(C)c2cc1C [Example 164, N-(2-((3R,5R)-3-((5-Cyano-4-methylpyrimidin-2-yl)amino)-5-fluoropiperidin-1-yl)-1,6-dimethyl-1H-benzo[d]imidazol-5-yl)acrylamide] | 50 to 500 nM
C=CC(=O)N(c1ccc2c(c1)nc(N1CCC[C@@H](Nc3ncc(C(F)(F)F)cn3)C1)n2C)C1CCOC1 (stereo partly drawn) [Example 165, N-(1-Methyl-2-((R)-3-((5-(trifluoromethyl)pyrimidin-2-yl)amino)piperidin-1-yl)-1H-benzo[d]imidazol-5-yl)-N-(tetrahydrofuran-3-yl)acrylamide] | < 50 nM
C=CC(=O)Nc1cc2nc(N3CCC[C@@H](Nc4ncc(C(F)(F)F)cn4)C3)n(C)c2cc1OC [Example 166, (R)—N-(6-Methoxy-1-methyl-2-(3-((5-(trifluoromethyl)pyrimidin-2-yl)amino)piperidin-1-yl)-1H-benzo[d]imidazol-5-yl)acrylamide] | < 50 nM
N-(2-((3R,5R)-3-Hydroxy-5-((5-(trifluoromethyl)pyrimidin-2-yl)amino)piperi-dine-1-yl)-1,6-dimethyl-1H-benzo[d]imidazol-5-yl)acrylamide [Example 94] | 50 to 500 nM
